Source: patent publication US20040259764A1, “Reticulocyte depletion signatures” (priority 2002, published 2004)
Where two headings read alike, the source gives them in different places. Marks after values point to notes of the source that are not given here.

Assays:
[1] = test system: Reticulocyte Depletion Signature (Alas2 and peripherin probes), spleen
From the text: (§1) Compound dosing was based on the acute dose LD50s recorded in published reference or literature sources. […] The MTD (maximum tolerated dose) was then selected as the dose at which the animals […] 5-10% body weight during the 5-day range finding study. […] In addition, the clinical observations must show no or mild clinical signs during the whole of the range-finding study. At the next highest dose, signs and symptoms of adverse effects and exceeding those of the MTD should be seen to occur. Should these criteria not be met, the range-finding study is repeated using a modified dose range.
(§2) After determination of the MTD and FED for a compound, each compound was dissolved in a vehicle for administration on day 1 of the study (additional daily doses were stored as frozen aliquots from this initial formulation). Each compound was administered to three individual male Sprague-Dawley rats for each of the two doses (MTD and FED) for one of four different times (0.25 day, 1 day, 3 days, and 5 days), yielding a total of up to 24 animals per compound study. Vehicle choice was based on solubility of the compound, effect of food on adsorption, and the vehicles used in the literature reports examined during the FED selection investigations, described above. Generally, the route and vehicle in which the FED was defined are used. When there was a choice of routes and vehicles, oral routes were chosen over injection routes. Many compounds, especially oncolytics, are only administerable intravenously. In such cases, the compound was administered as an intravenous formulation into the tail vein. Orally administered compounds were given dissolved in either water, 1% carboxymethycellulose (CMC) or corn oil. Intravenously and intraperitoneally administered compounds were given in 0.9% saline. Subcutaneously administered compounds were given in corn oil. Animal body weights were determined at 1 day and, where appropriate, at 4 days, before necropsy, and clinical observations were made on a daily basis. Control animals were dosed with vehicle only. Three male animals were used for each dose and time combination used for the compound treatment.
(§3) Tissue harvest and handling: After the allocated treatment time, the tissues from the animals were harvested. […] All the tissues collected were divided to provide samples for histopathological analyses, and the remainder of each tissue was then snap-frozen.
(§4) Preparation of enriched mRNA: Punch biopsies were taken from the frozen tissues and were completely homogenized before being processed using the MagNA Pure robot. (Roche Diagnostics Corp., Indianapolis, Ind.) in combination with the MagNA Pure LC RNA Isolation kit II (Roche Diagnostics Corp). The amount of lysis buffer was adjusted to allow 1 ml per 50 mg for liver tissue, or 1 ml per 80 mg for all other tissues. After complete homogenization and before loading of the samples into the 32-well MagNA Pure plate, the samples were syringed 5-6 times using a 20-gauge 3-ml syringe to ensure a smooth solution for robotic processing. Tissue sample processing was performed in duplicate wells (loading 150 μl of homogenized sample and 150 μl of additional lysis buffere to each well) of the MagNA Pure LC, which is programmed to extract mRNA using oligo-dT selection technology into a final elution volume of 100 μl. Poly A(+) RNA sample concentration was performed using a standard ethanol precipitation protocol in the presence of glycogen (50 μg/ml). After precipitation the final purified mRNA sample was resuspended in 7 μl DEPC-treated water and quantified using a Ribogreen high-range assay (Molecular Probes) on the Victor-Wallace II Fluorometer (Perkin-Elmer).

[2] = test system: Reticulocyte Depletion Signature (Alas2 and peripherin probes), bone marrow
From the text: as §1, §2, §3, §4

[3] = test system: Reticulocyte Depletion Signature (Alas2 and peripherin probes), liver
From the text: as §1, §2, §3, §4

[4] = test system: two specific reticulocyte-enriched transcripts
Procedure: as §2, §3
as §4, with “(Perkin-Elmer). Additionally, the integrity of each mRNA sample was determined using the Agilent 2100 BioAnalyzer (Agilent Technologies, Palo Alto, Calif.) in combination with the RNA 6000 Nano Lab Chip kit (Agilent Technologies).” for “(Perkin-Elmer).”
0.6-20 μg of enriched mRNA from different tissue sources was processed into cRNA in the presence of different bacterial control mRNAs (1.5pg FixA, 5pgYjek, 5pg AraB, 15pg EntF, 50pg FixB, 150pg HisB, 500pg LeuB, 1500pg Gnd) and with the modification of the addition of 1.0 μl of 100 pmol/μl HPLC-purified T7-(dT)24 oligonucleotide primer instead of a 0.5 pmol/μl unpurified T7-(dT)24 primer.
The slides were rinsed in distilled, deionized water (dd-H2O) with 0.05% Tween-20® twice for 5 seconds each before they were dried by centrifugation and stored in light protective slide boxes.

[5] = spleen data, signature derived from liver, * = p < 0.01
[6] = bone marrow data, signature derived from liver, * = p < 0.01
[7] = liver data, highest training treatment normalised to 100, * = p < 0.01
[8] = rat liver, dose, route and vehicle per compound as

Structure (SMILES) | SPS (Spleen) [1, 5] | SPS (Bone Marrow) [2, 6] | Signature Projection Score (SPS) [3, 7] | signal intensity for two specific reticulocyte-enriched transcripts as compared with vehicle-treated control animals [4, 8] | SPS (Spleen) ([1]; rat, in vivo) | SPS (Bone Marrow) ([2]; rat, in vivo) | Signature Projection Score (SPS) ([3]; rat, in vivo) | signal intensity for two specific reticulocyte-enriched transcripts as compared with vehicle-treated control animals ([4]; rat, in vivo)
NC(=O)NO [HYDROXYUREA, Hydroxyurea] | 130* | 0 | 71* | significantly decreased | – | – | – | –
COc1cc([C@@H]2c3cc4c(cc3[C@@H](O[C@@H]3O[C@@H]5CO[C@@H](C)O[C@H]5[C@H](O)[C@H]3O)[C@H]3COC(=O)[C@H]23)OCO4)cc(OC)c1O [ETOPOSIDE, 9-((4,6-0-ethylidene-β-D-glucopyranosyl)oxy)-5,8,8a,9-tetrahydro-5-(4-hydroxy-3,5,-dimethoxyphenyl)furo[3′,4′:6,7]naphtha[2,3-d]-1,3-dioxol-6(5acH)-one] | – | – | – | – | 146* | 151* | 100* | significantly decreased
O=P1(NCCCl)OCCCN1CCCl (centres unmarked) [IFOSFAMIDE, N,3-bis(2-chloroethyl)tetrahydro-2H-1,3,2-oxazaphosphorin-2-amine 2-oxide] | 24 | 27 | 95* | significantly decreased | – | – | – | –
Nc1ccn([C@@H]2O[C@H](CO)[C@@H](O)[C@@H]2O)c(=O)n1 [CYTARABINE, 4-amino-1-β-D-arabinofuranosyl-2(1H)-pyrimidinone] | – | – | – | – | 17 | 0 | 58* | significantly decreased
Cn1cnc([N+](=O)[O-])c1Sc1ncnc2nc[nH]c12 [AZATHIOPRINE, 6-((1-methyl-4-nitro-1H-imidazol-5-yl)thio)-1H-purine] | – | – | – | – | 122* | 27 | 90* | significantly decreased
Nc1nc2nc[nH]c2c(=S)[nH]1 [THIOGUANINE, 2-amino-1,7-dihydro-6H-purine-6-thione] | – | – | – | – | 121* | 40 | 99* | significantly decreased
CCCSc1ccc2nc(NC(=O)OC)[nH]c2c1 [albendazole, (5-(propylthio)-1H-benzimidazol-2yl)-carbamic acid methyl ester] | – | – | – | significantly decreased | – | – | – | –
COc1cccc2c1C(=O)c1c(O)c3c(c(O)c1C2=O)C[C@@](O)(C(=O)CO)C[C@@H]3O[C@H]1C[C@H](N)[C@H](O)[C@H](C)O1 [DOXORUBICIN, (8S-cis)-10-((3-amino-2,3,6-trideoxy-γ-L-lyxo-hexopyranosyl)oxy)-7,8,9,10-tetrahydro-6,8,11-trihydroxy-8-(hydroxyacetyl)-1-methoxy-5,12-naphthacene-dione] | – | – | – | – | 138* | 0 | 95* | significantly decreased
